Experimental data published in the supplement of paper PMC10307832.

Assays:
Assay in all cases: relative viability (nuclei count vs DMSO), 5 days (fraction); higher = more cells survive
[1] = test system: LCLC-103H
In short: (§1)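 Relative viability was taken as the ratio of nuclei in treated wells to nuclei in vehicle wells. Lung cancer cell lines in 1536-well plates received compounds by pin tool one day after seeding, either one drug alone or a fixed anchor-drug dose plus five library-drug doses (not always all listed) in √10 steps. Nuclei were counted on 4× images after 5 days of treatment, and values are medians of duplicate plates.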

[2] = test system: NCI-H1944
In short: as §1

[3] = test system: NCI-H2126
In short: as §1

[4] = test system: SK-LU-1
In short: as §1

[5] = test system: ChaGo-K-1
In short: as §1

[6] = test system: NCI-H1395
In short: as §1

[7] = test system: ABC-1
In short: as §1

[8] = test system: LXF-289
In short: as §1

[9] = test system: NCI-H322M
In short: as §1

[10] = test system: NCI-H1666
In short: as §1

[11] = test system: RERF-LC-KJ
In short: as §1

[12] = test system: NCI-H358
In short: as §1

[13] = test system: LU99A
In short: as §1

[14] = test system: NCI-H1792
In short: as §1

[15] = test system: CAL-12T
In short: as §1

[16] = test system: HCC-44
In short: as §1

[17] = test system: NCI-H520
In short: as §1

[18] = test system: HCC-827
In short: as §1

[19] = test system: NCI-H3122
In short: as §1

[20] = test system: NCI-H1793
In short: as §1

[21] = test system: NCI-H1755
In short: as §1

[22] = test system: NCI-H2347
In short: as §1

Cc1csc(=NC2CCCCC2)n1/N=C/c1ccc(O)c(O)c1O [MIM1] + CS(=O)(=O)N1CCN(Cc2cc3nc(-c4cccc5[nH]ncc45)nc(N4CCOCC4)c3s2)CC1 [Pictilisib] (partner 1 µM)
relative viability ([1]; first compound 0.2 µM): 0.721
relative viability ([1]; first compound 0.6325 µM): 0.574
relative viability ([1]; first compound 2 µM): 0.608
relative viability ([1]; first compound 6.325 µM): 0.631
relative viability ([1]; first compound 20 µM): 0.59
relative viability ([2]; first compound 0.2 µM): 0.394
relative viability ([2]; first compound 0.6325 µM): 0.335
relative viability ([2]; first compound 2 µM): 0.296
relative viability ([2]; first compound 6.325 µM): 0.34
relative viability ([2]; first compound 20 µM): 0.384
relative viability ([3]; first compound 0.2 µM): 0.516
relative viability ([3]; first compound 0.6325 µM): 0.481
relative viability ([3]; first compound 2 µM): 0.482
relative viability ([3]; first compound 6.325 µM): 0.467
relative viability ([3]; first compound 20 µM): 0.344
relative viability ([4]; first compound 0.2 µM): 0.636
relative viability ([4]; first compound 0.6325 µM): 0.594
relative viability ([4]; first compound 2 µM): 0.625
relative viability ([4]; first compound 6.325 µM): 0.466
relative viability ([4]; first compound 20 µM): 0.354
relative viability ([5]; first compound 0.2 µM): 0.876
relative viability ([5]; first compound 0.6325 µM): 0.629
relative viability ([5]; first compound 2 µM): 0.863
relative viability ([5]; first compound 6.325 µM): 0.644
relative viability ([5]; first compound 20 µM): 0.265
relative viability ([6]; first compound 0.2 µM): 0.666
relative viability ([6]; first compound 0.6325 µM): 0.61
relative viability ([6]; first compound 2 µM): 0.509
relative viability ([6]; first compound 6.325 µM): 0.377
relative viability ([6]; first compound 20 µM): 0.365
relative viability ([7]; first compound 0.2 µM): 0.547
relative viability ([7]; first compound 0.6325 µM): 0.852
relative viability ([7]; first compound 2 µM): 0.722
relative viability ([7]; first compound 6.325 µM): 0.286
relative viability ([7]; first compound 20 µM): 0.286
relative viability ([8]; first compound 0.2 µM): 0.757
relative viability ([8]; first compound 0.6325 µM): 0.689
relative viability ([8]; first compound 2 µM): 0.823
relative viability ([8]; first compound 6.325 µM): 0.676
relative viability ([8]; first compound 20 µM): 0.522
relative viability ([9]; first compound 0.2 µM): 0.565
relative viability ([9]; first compound 0.6325 µM): 0.497
relative viability ([9]; first compound 2 µM): 0.511
relative viability ([9]; first compound 6.325 µM): 0.477
relative viability ([9]; first compound 20 µM): 0.698
relative viability ([10]; first compound 0.2 µM): 0.605
relative viability ([10]; first compound 0.6325 µM): 0.398
relative viability ([10]; first compound 2 µM): 0.476
relative viability ([10]; first compound 6.325 µM): 0.422
relative viability ([10]; first compound 20 µM): 0.311
relative viability ([11]; first compound 0.2 µM): 0.504
relative viability ([11]; first compound 0.6325 µM): 0.488
relative viability ([11]; first compound 2 µM): 0.484
relative viability ([11]; first compound 6.325 µM): 0.415
relative viability ([11]; first compound 20 µM): 0.225
relative viability ([12]; first compound 0.2 µM): 0.309
relative viability ([12]; first compound 0.6325 µM): 0.271
relative viability ([12]; first compound 2 µM): 0.254
relative viability ([12]; first compound 6.325 µM): 0.247
relative viability ([12]; first compound 20 µM): 0.262
relative viability ([13]; first compound 0.2 µM): 0.394
relative viability ([13]; first compound 0.6325 µM): 0.344
relative viability ([13]; first compound 2 µM): 0.303
relative viability ([13]; first compound 6.325 µM): 0.306
relative viability ([13]; first compound 20 µM): 0.233
relative viability ([14]; first compound 0.2 µM): 0.296
relative viability ([14]; first compound 0.6325 µM): 0.293
relative viability ([14]; first compound 2 µM): 0.26
relative viability ([14]; first compound 6.325 µM): 0.252
relative viability ([14]; first compound 20 µM): 0.221
relative viability ([15]; first compound 0.2 µM): 0.394
relative viability ([15]; first compound 2 µM): 0.473
relative viability ([15]; first compound 6.325 µM): 0.453
relative viability ([15]; first compound 20 µM): 0.233
relative viability ([16]; first compound 0.2 µM): 0.811
relative viability ([16]; first compound 0.6325 µM): 0.589
relative viability ([16]; first compound 2 µM): 0.61
relative viability ([16]; first compound 6.325 µM): 0.356
relative viability ([16]; first compound 20 µM): 0.198
relative viability ([17]; first compound 0.2 µM): 0.302
relative viability ([17]; first compound 0.6325 µM): 0.287
relative viability ([17]; first compound 2 µM): 0.295
relative viability ([17]; first compound 6.325 µM): 0.235
relative viability ([17]; first compound 20 µM): 0.246
relative viability ([18]; first compound 0.2 µM): 0.985
relative viability ([18]; first compound 0.6325 µM): 0.936
relative viability ([18]; first compound 2 µM): 0.947
relative viability ([18]; first compound 6.325 µM): 0.618
relative viability ([18]; first compound 20 µM): 0.664
relative viability ([19]; first compound 0.2 µM): 0.644
relative viability ([19]; first compound 0.6325 µM): 0.529
relative viability ([19]; first compound 2 µM): 0.701
relative viability ([19]; first compound 6.325 µM): 0.578
relative viability ([19]; first compound 20 µM): 0.394
relative viability ([20]; first compound 0.2 µM): 0.402
relative viability ([20]; first compound 0.6325 µM): 0.314
relative viability ([20]; first compound 2 µM): 0.344
relative viability ([20]; first compound 6.325 µM): 0.34
relative viability ([20]; first compound 20 µM): 0.217
relative viability ([21]; first compound 0.2 µM): 0.465
relative viability ([21]; first compound 0.6325 µM): 0.372
relative viability ([21]; first compound 2 µM): 0.42
relative viability ([21]; first compound 6.325 µM): 0.37
relative viability ([21]; first compound 20 µM): 0.179
relative viability ([22]; first compound 0.2 µM): 0.885
relative viability ([22]; first compound 0.6325 µM): 0.733
relative viability ([22]; first compound 2 µM): 0.72
relative viability ([22]; first compound 6.325 µM): 0.619
relative viability ([22]; first compound 20 µM): 0.359
